# Experimental data as given in patent publication US9409952B2, “Peptide-compound cyclization method” (Chugai Seiyaku Kabushiki Kaisha, priority 2011, dated 2016).
# Like-named read-outs stand apart in the source and are kept apart here. Starred links: 1 amine or outer side, 2 acyl side, 3 side chain; linkers in the order of their positions; H or OH if unused. Positions of bridges follow the written chain, without caps; N, C: chain ends. Non-standard residues stand in square brackets, D forms with d. Residues, ends and D or L forms follow the SMILES beside them. *: point of attachment. Phe(4-(CH2)5CO) = O=C([C@H](Cc1ccc(CCCCCC(=O)[*:3])cc1)N[*:1])[*:2]; NMeF = CN[C@@H](Cc1ccccc1)C(=O)O; NMeI = CC[C@H](C)[C@H](NC)C(=O)O; NMeL = CN[C@@H](CC(C)C)C(=O)O; NMeV = CN[C@H](C(=O)O)C(C)C; NMeA = CN[C@@H](C)C(=O)O; Piperidide = C1CCN(*)CC1; dNMeA = CN[C@H](C)C(=O)O; Sar = CNCC(=O)O; tBu = CC(C)(C)*
# Test: Metabolic stability in human hepatic microsome
# Assay type: in vitro ADME
# Settings: for microsomal CLint at 1 uM: microsomes
# [1] = pH 7.4, human hepatic microsome, NADPH(+), read-out: CL NADPH(+)
SMILES,microsomal CLint at 1 uM [1],"microsomal CLint at 1 uM (human, pH 7.4, CL NADPH(+))",further results
C=C1CCC(=O)N[C@@H](C(C)C)C(=O)N(C)[C@@H](C)C(=O)N(C)[C@@H](CC(C)C)C(=O)N[C@@H](CC(C)C)C(=O)N[C@@H](Cc2ccccc2)C(=O)N(C)[C@@H](Cc2ccccc2)C(=O)N[C@@H]([C@@H](C)CC)C(=O)N2CCC[C@H]2C(=O)N[C@@H]([C@@H](C)O)C(=O)N(C)[C@@H](CC(C)C)C(=O)N[C@H](C(=O)N2CCCCC2)Cc2cccc1c2 [DP-884],64 µL/min/mg,–,–
CC(C)C[C@@H]1NC(=O)[C@H](Cc2ccccc2)NC(=O)[C@H](CC(C)C)N(C)C(=O)[C@H](Cc2ccccc2)NC(=O)CCCCCc2ccc(cc2)C[C@@H](C(=O)N2CCCCC2)NC(=O)[C@H](Cc2ccccc2)N(C)C(=O)CNC(=O)[C@H]([C@@H](C)O)NC(=O)[C@H](CC(C)C)NC1=O [DP-842] (F[NMeL]FLLTG[NMeF][Phe(4-(CH2)5CO)]-Piperidide; lactam N-9),135 µL/min/mg,–,–
CC(C)C[C@@H]1NC(=O)[C@H](Cc2ccccc2)N(C)C(=O)[C@H](C)N(C)C(=O)C[C@@H](C(=O)N2CCCCC2)NC(=O)[C@H]([C@@H](C)O)NC(=O)[C@H](CC(C)C)N(C)C(=O)[C@H](Cc2ccccc2)NC(=O)[C@H](CC(C)C)N(C)C(=O)[C@H](CC(C)C)N(C)C1=O [DP-494] ([NMeA][NMeF]L[NMeL][NMeL]F[NMeL]TD-Piperidide; lactam N-9),330 µL/min/mg,–,–
CC[C@H](C)[C@@H]1NC(=O)[C@H](Cc2ccccc2)N(C)C(=O)[C@H](Cc2ccccc2)NC(=O)[C@H](CC(C)C)N(C)C(=O)[C@H](CC(C)C)NC(=O)[C@H](C)NC(=O)C[C@@H](C(=O)N2CCCCC2)NC(=O)[C@H]([C@@H](C)O)NC(=O)[C@H](C)N(C)C1=O [DP-86] (AL[NMeL]F[NMeF]I[NMeA]TD-Piperidide; lactam N-9),237 µL/min/mg,–,–
CC(C)C[C@@H]1NC(=O)[C@H](C)NC(=O)C[C@@H](C(=O)N2CCCCC2)NC(=O)[C@H](CC(C)C)N(C)C(=O)[C@H](C)NC(=O)[C@H](CC(C)C)NC(=O)[C@H](C(C)C)NC(=O)CNC(=O)[C@H](Cc2ccccc2)NC(=O)[C@H](C)N(C)C(=O)[C@H](CC(C)C)NC(=O)[C@H]([C@@H](C)O)NC(=O)[C@H](Cc2ccccc2)NC1=O [DP-82] (ALFTL[NMeA]FGVLA[NMeL]D-Piperidide; lactam N-13),16 µL/min/mg,–,–
CC[C@H](C)[C@@H]1NC(=O)[C@H](C)NC(=O)[C@H](CC(C)C)N(C)C(=O)[C@H](CC(C)C)NC(=O)[C@H](Cc2ccccc2)NC(=O)[C@H](C(C)C)NC(=O)[C@H](C)N(C)C(=O)[C@H](CC(C)C)NC(=O)[C@H](Cc2ccccc2)N(C)C(=O)[C@H]([C@@H](C)O)NC(=O)CNC(=O)[C@H](C)NC(=O)C[C@@H](C(=O)N2CCCCC2)NC1=O [DP-87] (AGT[NMeF]L[NMeA]VFL[NMeL]AID-Piperidide; lactam N-13),120 µL/min/mg,–,–
"CC[C@H](C)[C@H]1C(=O)N[C@H](C(=O)N2CCCCC2)CC(=O)N[C@@H](C)C(=O)N(C)[C@@H](C)C(=O)N(C)[C@@H](Cc2ccccc2)C(=O)N(C)[C@@H](CC(C)C)C(=O)N[C@@H]([C@@H](C)O)C(=O)N(C)CC(=O)N(C)[C@@H](CC(C)C)C(=O)N[C@@H](COC(C)(C)C)C(=O)N1C [Compound P-125, Ala-MeAla-MePhe-MeLeu-Thr-MeGly-MeLeu-Ser(tBu)-MeIle-Asp-piperidine] (A[NMeA][NMeF][NMeL]T[Sar][NMeL]S(tBu)[NMeI]D-Piperidide; lactam N-10)",–,–,"Hepatic microsome CLhint (Human) In the absence of NADPH: 1 ul/min/mg Protein; Hepatic microsome CLhint (Human) In the presence of NADPH (Table 10, with NADPH): 35 ul/min/mg Protein"
CC[C@H](C)[C@H](NC(=O)[C@H](C)NC(=O)CNC(=O)[C@@H]1CC(=O)N[C@@H](C)C(=O)N[C@@H](CC(C)C)C(=O)N[C@@H]([C@@H](C)O)C(=O)N(C)[C@@H](CC(C)C)C(=O)N[C@@H](Cc2ccccc2)C(=O)N2CCC[C@H]2C(=O)N[C@@H](C(C)C)C(=O)N[C@@H](Cc2ccccc2)C(=O)N(C)[C@@H](CC(C)C)C(=O)N1)C(=O)N1CCCCC1 [DP-42] (ALT[NMeL]FPVF[NMeL]DGAI-Piperidide; lactam N-10),–,17 µL/min/mg,–
CC[C@H](C)[C@H]1C(=O)N[C@@H](C)C(=O)N(C)[C@@H](Cc2ccccc2)C(=O)N(C)[C@@H](Cc2ccccc2)C(=O)N[C@@H]([C@@H](C)O)C(=O)N(C)[C@@H](CC(C)C)C(=O)N2CCC[C@H]2C(=O)N[C@H](C(=O)N2CCCCC2)CC(=O)N[C@@H](C)C(=O)N[C@@H](C(C)C)C(=O)N(C)[C@@H](CC(C)C)C(=O)N(C)CC(=O)N(C)[C@@H](CC(C)C)C(=O)N1C [DP-2] (AV[NMeL][Sar][NMeL][NMeI]A[NMeF][NMeF]T[NMeL]PD-Piperidide; lactam N-13),–,7 µL/min/mg,–
CC[C@H](C)[C@H]1C(=O)N[C@@H](Cc2ccccc2)C(=O)N(C)[C@@H](Cc2ccccc2)C(=O)N[C@@H]([C@@H](C)O)C(=O)N2CCC[C@H]2C(=O)N[C@@H](CC(C)C)C(=O)N[C@H](C(=O)N2CCCCC2)CC(=O)N[C@@H](C)C(=O)N[C@@H](C(C)C)C(=O)N(C)CC(=O)N[C@@H](CC(C)C)C(=O)N(C)[C@@H](CC(C)C)C(=O)N[C@@H](C)C(=O)N1C [DP-1] (AV[Sar]L[NMeL]A[NMeI]F[NMeF]TPLD-Piperidide; lactam N-13),–,27 µL/min/mg,–
CC[C@H](C)[C@H]1C(=O)N[C@@H](Cc2ccccc2)C(=O)N(C)[C@@H](Cc2ccccc2)C(=O)N[C@@H]([C@@H](C)O)C(=O)N2CCC[C@H]2C(=O)N[C@@H](CC(C)C)C(=O)N[C@H](C(=O)N2CCCCC2)CC(=O)N[C@@H](C)C(=O)NCC(=O)N(C)[C@@H](C(C)C)C(=O)N(C)[C@@H](CC(C)C)C(=O)N[C@@H](C)C(=O)N1C [DP-26] (AG[NMeV][NMeL]A[NMeI]F[NMeF]TPLD-Piperidide; lactam N-12),–,62 µL/min/mg,–
CC(C)C[C@@H]1NC(=O)[C@H](CC(C)C)N(C)C(=O)[C@H](CC(C)C)N(C)C(=O)[C@H](CCC(N)=O)NC(=O)[C@H](Cc2ccccc2)N(C)C(=O)[C@H]([C@@H](C)O)NC(=O)[C@H](CC(C)C)N(C)C(=O)[C@H](Cc2ccccc2)NC(=O)[C@H](C)NC(=O)C[C@@H](C(=O)N(C)[C@@H](Cc2ccccc2)C(=O)N[C@@H](C)C(=O)N2CCCCC2)NC1=O [DP-602] (AF[NMeL]T[NMeF]Q[NMeL][NMeL]LD[NMeF]A-Piperidide; lactam N-10),26 µL/min/mg,–,–
CC[C@H](C)[C@H]1C(=O)N(C)[C@@H](C)C(=O)N[C@H](C(=O)N2CCCCC2)CC(=O)N[C@@H](C)C(=O)N[C@@H]([C@@H](C)O)C(=O)N(C)[C@@H](Cc2ccccc2)C(=O)N(C)[C@@H](CC(C)C)C(=O)N[C@@H](C(C)C)C(=O)N2CCC[C@H]2C(=O)N(C)[C@@H](Cc2ccccc2)C(=O)N[C@@H](CC(C)C)C(=O)N(C)CC(=O)N1C [DP-11] (AT[NMeF][NMeL]VP[NMeF]L[Sar][NMeI][NMeA]D-Piperidide; lactam N-12),–,67 µL/min/mg,–
C=C1CCC(=O)N(C)[C@@H](Cc2ccccc2)C(=O)N[C@@H](CC(C)C)C(=O)N(C)[C@@H](CC(C)C)C(=O)N[C@@H]([C@@H](C)O)C(=O)N(C)CC(=O)N(C)[C@@H]([C@@H](C)CC)C(=O)N[C@@H](COC(C)(C)C)C(=O)N(C)[C@@H](Cc2ccccc2)C(=O)N(C)[C@@H](C(C)C)C(=O)N[C@H](C(=O)N2CCCCC2)Cc2cccc1c2 [DP-851],99 µL/min/mg,–,–
CC(C)C[C@@H]1NC(=O)[C@H](Cc2ccccc2)NC(=O)[C@H](CC(C)C)N(C)C(=O)[C@H](Cc2ccccc2)NC(=O)[C@@H](C)N(C)C(=O)C[C@@H](C(=O)N2CCCCC2)NC(=O)[C@H](Cc2ccccc2)N(C)C(=O)CNC(=O)[C@H]([C@@H](C)O)NC(=O)[C@H](CC(C)C)NC1=O [DP-486] ([dNMeA]F[NMeL]FLLTG[NMeF]D-Piperidide; lactam N-10),87 µL/min/mg,–,–
